According to patent publication US11648254B2 (Kumquat Biosciences Inc., priority 2021, dated 2023):
Read-outs that look alike come from different tables or passages of the source.

How the values were obtained:
SOS1 = SOS1 (Homo sapiens (Human), UniProt Q07889); assay: Ras-SOS interaction assay (HTRF); format: biochemical
[1] = system: NCI-H1975 cells (EGFR T790M L858R); assay: EGFR-SOS cellular inhibition assay (CellTiter-Glo, 3D); format: cell-based; conditions: Homo sapiens
[2] = system: MIA PaCa-2 cells (K-Ras G12C); assay: Ras-SOS cellular growth inhibition assay (CellTiter-Glo, 3D); format: cell-based; conditions: Homo sapiens
Procedure, shortened: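 MIA PaCa-2 cells grown in ultra-low-attachment plates (3D) in DMEM/Ham's F12 with 10% FCS and 2.5% horse serum, treated the day after seeding with a 9-point 3-fold compound series for about 5 days. Viability by CellTiter-Glo luminescence; IC50 from four-parameter fit.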

[3] = K-RasG13D utilized, read-out: IC50 inhibition of SOS
[4] = K-RasG13D, read-out: IC50 value against SOS1
[5] = 120 h, NCI-H1975, 3D proliferation, about 5 days, read-out: Bio-Cell-Prolif-3D (H1975 IC50)
[6] = NCI-H1975, EGFR T790M L858R, read-out: IC50 in inhibiting growth of NCI-H1975 cell line
[7] = MIA PaCa-2, 120 h, MIA PaCa-2, 3D proliferation, about 5 days, read-out: Bio-Cell-Prolif-3D (MiaPaca2 IC50)
[8] = MIA PaCa-2, MIA PaCa-2, read-out: IC50 in inhibiting MIA PaCa-2 cell growth

Sequence of SOS1 (Q07889 564-1049): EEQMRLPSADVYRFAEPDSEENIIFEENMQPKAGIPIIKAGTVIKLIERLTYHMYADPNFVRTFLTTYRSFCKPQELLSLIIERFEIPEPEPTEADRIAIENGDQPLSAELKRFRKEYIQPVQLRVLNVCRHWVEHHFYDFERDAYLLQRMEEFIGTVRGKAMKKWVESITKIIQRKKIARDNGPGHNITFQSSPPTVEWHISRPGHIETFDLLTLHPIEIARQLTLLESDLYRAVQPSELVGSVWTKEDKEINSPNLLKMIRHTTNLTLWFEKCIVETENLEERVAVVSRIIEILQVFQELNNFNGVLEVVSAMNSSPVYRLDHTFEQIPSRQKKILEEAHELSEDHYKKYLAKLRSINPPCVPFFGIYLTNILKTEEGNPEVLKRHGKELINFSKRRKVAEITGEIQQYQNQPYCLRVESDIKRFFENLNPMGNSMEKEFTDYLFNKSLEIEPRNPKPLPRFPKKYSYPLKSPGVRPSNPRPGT

SMILES	IC50 (SOS1; [3])	IC50 (SOS1; [4])	IC50 [1, 5]	IC50 [1, 6]	IC50 [2, 7]	IC50 [2, 8]
COc1nc2nc(C)nc(N[C@H](C)c3cccc(C(F)(F)CN4CCC4)c3F)c2cc1C1(C#N)CC1 [Compound 277, (R)-1-(4-((1-(3-(2-(azetidin-1-yl)-1,1-difluoroethyl)-2-fluorophenyl)ethyl)amino)-7-methoxy-2-methylpyrido [2,3-d]pyrimidin-6-yl)cyclopropane-1-carbonitrile]	< 100 nM	< 50 nM	≤ 1000 nM	< 500 nM	≤ 1000 nM	–
Cc1nc(N[C@H](C)c2cccc(C(F)F)c2F)c2cc(C3CCS(=O)(=O)CC3)c(OC3COC3)nc2n1 [Compound 229, (R)-4-(4-((1-(3-(difluoromethyl)-2-fluorophenyl)ethyl)amino)-2-methyl-7-(oxetan-3-yloxy)pyrido[2,3-d]pyrimidin-6-yl)tetrahydro-2H-thiopyran 1,1-dioxide]	< 100 nM	< 50 nM	≤ 1000 nM	–	≤ 1000 nM	–
CNc1nc2nc(C)nc(N[C@H](C)c3cccc(C(F)F)c3F)c2cc1S(=O)(=O)C1CCN(C)CC1 [Compound 139, (R)-N4-(1-(3-(difluoromethyl)-2-fluorophenyl)ethyl)-N7,2-dimethyl-6-((1-methylpiperidin-4-yl)sulfonyl)pyrido[2,3-d]pyrimidine-4,7-diamine]	< 100 nM	< 50 nM	≤ 1000 nM	< 500 nM	≤ 1000 nM	< 500 nM
CNCCOc1nc2nc(C)nc(N[C@H](C)c3cccc(C(F)F)c3F)c2cc1N1CCN(C(C)C)CC1 [Compound 406, (R)-N-(1-(3-(difluoromethyl)-2-fluorophenyl)ethyl)-6-(4-isopropylpiperazin-1-yl)-2-methyl-7-(2-(methylamino)ethoxy)pyrido[2,3-d] pyrimidin-4-amine]	< 100 nM	< 50 nM	≤ 1000 nM	< 500 nM	≤ 1000 nM	< 500 nM
Cc1nc(N[C@H](C)c2cccc(C(F)(F)CO)c2F)c2cc(C3(C#N)CC3)c(N3CCN(C(C)C)CC3)nc2n1 [Compound 347, (R)-1-(4-((1-(3-(1,1-difluoro-2-hydroxyethyl)-2-fluorophenyl)ethyl)amino)-7-(4-isopropylpiperazin-1-yl)-2-methylpyrido[2,3-d]pyrimidin-6-yl)cyclopropane-1-carbonitrile]	< 100 nM	< 50 nM	≤ 1000 nM	< 500 nM	≤ 1000 nM	< 500 nM
COc1nc2nc(C)nc(N[C@H](C)c3cccc(C(F)F)c3F)c2cc1C1(C#N)CCOCC1 [Compound 320, (R)-4-(4-((1-(3-(difluoromethyl)-2-fluorophenyl)ethyl)amino)-7-methoxy-2-methylpyrido[2,3-d]pyrimidin-6-yl)tetrahydro-2H-pyran-4-carbonitrile]	< 100 nM	< 50 nM	≤ 1000 nM	< 500 nM	≤ 1000 nM	–
COc1nc2ncnc(N[C@H](C)c3cccc(C(F)F)c3F)c2cc1C1(C(F)F)CC1 [Compound 185, (R)-N-(1-(3-(difluoromethyl)-2-fluorophenyl)ethyl)-6-(1-(difluoromethyl)cyclopropyl)-7-methoxypyrido[2,3-d]pyrimidin-4-amine]	100 to 1000 nM	–	1000 to 10000 nM	–	1000 to 10000 nM	–
CC(C)N1CCC(c2cc3c(N[C@H](C)c4cccc(C(F)(F)C5CCN(C(C)C)CC5)c4F)ncnc3nc2Cl)CC1 [Compound 218, (R)-7-chloro-N-(1-(3-(difluoro(1-isopropylpiperidin-4-yl)methyl)-2-fluorophenyl)ethyl)-6-(1-isopropylpiperidin-4-yl)pyrido[2,3-d]pyrimidin-4-amine]	< 100 nM	< 50 nM	≤ 1000 nM	< 500 nM	≤ 1000 nM	< 500 nM
COc1nc2nc(C)nc(N[C@H](C)c3cccc(C(F)(F)F)c3C)c2cc1N1CCS(=O)(=O)CC1 [Compound 142, (R)-4-(7-methoxy-2-methyl-4-((1-(2-methyl-3-(trifluoromethyl)phenyl)ethyl)amino)pyrido[2,3-d]pyrimidin-6-yl)thiomorpholine 1,1-dioxide]	< 100 nM	< 50 nM	≤ 1000 nM	< 500 nM	≤ 1000 nM	< 500 nM
COc1nc2nc(C)nc(N[C@H](C)c3cccc(C(F)(F)C4CCN(C(C)C)CC4)c3F)c2cc1C1CCS(=O)(=O)CC1 [Compound 379, (R)-4-(4-((1-(3-(difluoro(1-isopropylpiperidin-4-yl)methyl)-2-fluorophenyl)ethyl)amino)-7-methoxy-2-methylpyrido[2,3-d]pyrimidin-6-yl)tetrahydro-2H-thiopyran 1,1-dioxide]	< 100 nM	< 50 nM	≤ 1000 nM	< 500 nM	≤ 1000 nM	< 500 nM
Cc1nc(N[C@H](C)c2cccc(C(F)F)c2F)c2cc(C3(C#N)CC3)c(OCC3COC3)nc2n1 [Compound 299, (R)-1-(4-((1-(3-(difluoromethyl)-2-fluorophenyl)ethyl)anrino)-2-methyl-7-(oxetan-3-ylmethoxy)pyrido[2,3-d]pyrimidin-6-yl)cyclopropane-1-carbonitrile]	< 100 nM	< 50 nM	≤ 1000 nM	–	1000 to 10000 nM	–
COc1nc2nc(OC[C@H]3CCCN3C)nc(N[C@H](C)c3cccc(C(F)F)c3F)c2cc1C1(C#N)CC1 [Compound 270, 1-(4-(((R)-1-(3-(difluoromethyl)-2-fluorophenyl)ethyl)amino)-7-methoxy-2-(((R)-1-methylpyrrolidin-2-yl)methoxy)pyrido [2,3-d]pyrimidin-6-yl)cyclopropane-1-carbonitrile]	< 100 nM	< 50 nM	≤ 1000 nM	< 500 nM	≤ 1000 nM	< 500 nM
CNCCN1CCC(c2cc3c(N[C@H](C)c4cccc(C(F)F)c4F)nc(C)nc3nc2OC)CC1 [Compound 129, (R)-N-(1-(3-(difluoromethyl)-2-fluorophenyl)ethyl)-7-methoxy-2-methyl-6-(1-(2-(methyl-12-azaneyl)ethyl)piperidin-4-yl)pyrido[2,3-d]pyrimidin-4-amine]	< 100 nM	< 50 nM	1000 to 10000 nM	–	≤ 1000 nM	–
COc1nc2nc(C)nc(N[C@H](C)c3cccc(C(F)(F)CCC4CN(C)C4)c3F)c2cc1C1CCS(=O)(=O)CC1 [Compound 180, (R)-4-(4-((1-(3-(1,1-difluoro-3-(1-methylazetidin-3-yl)propyl)-2-fluorophenyl)ethyl)amino)-7-methoxy-2-methylpyrido[2,3-d]pyrimidin-6-yl)tetrahydro-2H-thiopyran 1,1-dioxide]	< 100 nM	< 50 nM	≤ 1000 nM	< 500 nM	≤ 1000 nM	< 500 nM
COc1nc2nc(C)nc(N[C@H](C)c3cccc(C(F)(F)C(C)(C)O)c3)c2cc1C1CCS(=O)(=O)CC1 [Compound 173, (R)-4-(4-((1-(3-(1,1-difluoro-2-hydroxy-2-methylpropyl)phenyl)ethyl)amino)-7-methoxy-2-methylpyrido[2,3-d]pyrimidin-6-yl)tetrahydro-2H-thiopyran 1,1-dioxide]	< 100 nM	< 50 nM	≤ 1000 nM	< 500 nM	1000 to 10000 nM	–
Cc1c([C@@H](C)Nc2ncnc3nc(Cl)c(C4CCN(C(C)C)CC4)cc23)cccc1C(F)(F)F [Compound 385, (R)-7-chloro-6-(1-isopropylpiperidin-4-yl)-N-(1-(2-methyl-3-(trifluoromethyl)phenyl)ethyl)pyrido [2,3-d]pyrimidin-4-amine]	< 100 nM	< 50 nM	≤ 1000 nM	< 500 nM	≤ 1000 nM	< 500 nM
COc1nc2ncnc(N[C@H](C)c3cccc(C(F)(F)F)c3F)c2cc1N1CCN(C)CC1 [Compound 197, (R)-N-(1-(2-fluoro-3-(trifluoromethyl)phenyl)ethyl)-7-methoxy-6-(4-methylpiperazin-1-yl)pyrido[2,3-d] pyrimidin-4-amine]	< 100 nM	< 50 nM	≤ 1000 nM	< 500 nM	≤ 1000 nM	< 500 nM
COc1nc2ncnc(N[C@H](C)c3cccc(C(F)F)c3F)c2cc1C1(C#N)CCS(=O)(=O)CC1 [Compound 342, (R)-4-(4-((1-(3-(difluoromethyl)-2-fluorophenyl)ethyl)amino)-7-methoxypyrido[2,3-d]pyrimidin-6-yl)tetrahydro-2H-thiopyran-4-carbonitrile 1,1-dioxide]	< 100 nM	< 50 nM	≤ 1000 nM	< 500 nM	≤ 1000 nM	–
Cc1nc(N[C@H](C)c2cccc(C(F)F)c2F)c2cc(C3CCS(=O)(=O)CC3)c(N(C)C)nc2n1 [Compound 143, (R)-4-(4-((1-(3-(difluoromethyl)-2-fluorophenyl)ethyl)amino)-7-(dimethylamino)-2-methylpyrido[2,3-d]pyrimidin-6-yl)tetrahydro-2H-thiopyran 1,1-dioxide]	< 100 nM	< 50 nM	≤ 1000 nM	< 500 nM	≤ 1000 nM	< 500 nM
